Measured values published in ChEMBL document CHEMBL1201861, “Genomics of Drug Sensitity in Cancer screening data, Wellcome Trust Sanger Institute”.

Assays:
Experiment in all cases: cells
EM-2 = type: functional, cell-based, Homo sapiens; settings: Homo sapiens, EM-2;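 further: growth inhibition of EM-2 cells, read out with a cell viability assay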
Description: SANGER: Inhibition of human EM-2 cell growth in a cell viability assay.

TK-10 = type: functional, cell-based, Homo sapiens; settings: Homo sapiens, TK-10;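 further: growth inhibition of TK-10 cells, read out in a cell viability assay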
Description: SANGER: Inhibition of human TK10 cell growth in a cell viability assay.

SK-MEL-1 = type: functional, cell-based, Homo sapiens; settings: Homo sapiens, SK-MEL-1;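 further: growth inhibition of human SK-MEL-1 cells, read out by a cell viability assay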
Description: SANGER: Inhibition of human SK-MEL-1 cell growth in a cell viability assay.

EW-11 = type: functional, cell-based, Homo sapiens; settings: Homo sapiens, EW-11;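 further: growth inhibition of human EW-11 cells, measured with a cell viability assay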
Description: SANGER: Inhibition of human EW-11 cell growth in a cell viability assay.

Ramos-2G6-4C10 = type: functional, cell-based, Homo sapiens; settings: Homo sapiens, Ramos-2G6-4C10;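 further: growth inhibition of the cell line, measured by a cell viability read-out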
Description: SANGER: Inhibition of human Ramos-2G6-4C10 cell growth in a cell viability assay.

U-87 MG = type: functional, cell-based, Homo sapiens, U-87MG ATCC; settings: Homo sapiens, U-87 MG;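 further: growth inhibition of the cells measured with a viability assay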
Description: SANGER: Inhibition of human U-87-MG cell growth in a cell viability assay.

BE-13 = type: functional, cell-based, Homo sapiens; settings: Homo sapiens, BE-13;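 further: growth inhibition of human BE-13 cells, measured with a cell viability assay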
Description: SANGER: Inhibition of human BE-13 cell growth in a cell viability assay.

OS-RC-2 = type: functional, cell-based, Homo sapiens; settings: Homo sapiens, OS-RC-2;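 further: growth inhibition of human OS-RC-2 cells, measured by a cell viability assay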
Description: SANGER: Inhibition of human OS-RC-2 cell growth in a cell viability assay.

TE-6 = type: functional, cell-based, Homo sapiens; settings: Homo sapiens, TE-6;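 further: growth inhibition of TE-6 cells, read out with a cell viability assay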
Description: SANGER: Inhibition of human TE-6 cell growth in a cell viability assay.

IST-SL1 = type: functional, cell-based, Homo sapiens; settings: Homo sapiens, IST-SL1;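 further: growth inhibition of human IST-SL1 cells, read out with a cell viability assay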
Description: SANGER: Inhibition of human IST-SL1 cell growth in a cell viability assay.

C2BBe1 = type: functional, cell-based, Homo sapiens; settings: Homo sapiens, C2BBe1;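 further: growth inhibition of C2BBe1 cells, read out through a viability assay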
Description: SANGER: Inhibition of human C2BBe1 cell growth in a cell viability assay.

DU-4475 = type: functional, cell-based, Homo sapiens; settings: Homo sapiens, DU-4475
Description: SANGER: Inhibition of human DU-4475 cell growth in a cell viability assay.

MMAC-SF = type: functional, cell-based, Homo sapiens; settings: Homo sapiens, MMAC-SF;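 further: growth inhibition of human MMAC-SF cells, read out with a cell viability assay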
Description: SANGER: Inhibition of human MMAC-SF cell growth in a cell viability assay.

RS4-11 = type: functional, cell-based, Homo sapiens; settings: Homo sapiens, RS4-11;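 further: growth inhibition of RS4-11 cells, read out by a cell viability assay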
Description: SANGER: Inhibition of human RS4-11 cell growth in a cell viability assay.

NCI-H747 = type: functional, cell-based, Homo sapiens; settings: Homo sapiens, NCI-H747;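 further: growth inhibition of human NCI-H747 cells, read out by a cell viability assay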
Description: SANGER: Inhibition of human NCI-H747 cell growth in a cell viability assay.

NCI-H1304 = type: functional, cell-based, Homo sapiens; settings: Homo sapiens, NCI-H1304;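 further: growth inhibition of the cancer cell line, measured in a cell viability assay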
Description: SANGER: Inhibition of human NCI-H1304 cell growth in a cell viability assay.

NB13 = type: functional, cell-based, Homo sapiens; settings: Homo sapiens, NB13;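 further: cell viability readout measuring growth inhibition of human NB13 cells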
Description: SANGER: Inhibition of human NB13 cell growth in a cell viability assay.

NCI-H510A = type: functional, cell-based, Homo sapiens; settings: Homo sapiens, NCI-H510A;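 further: growth inhibition of NCI-H510A cells, read out with a cell viability assay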
Description: SANGER: Inhibition of human NCI-H510A cell growth in a cell viability assay.

GB-1 = type: functional, cell-based, Homo sapiens; settings: Homo sapiens, GB-1;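 further: growth of GB-1 cells judged by a viability assay, IC50 marks the concentration inhibiting growth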
Description: SANGER: Inhibition of human GB-1 cell growth in a cell viability assay.

GI-ME-N = type: functional, cell-based, Homo sapiens; settings: Homo sapiens, GI-ME-N;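 further: growth inhibition of human GI-ME-N cells, read out with a cell viability assay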
Description: SANGER: Inhibition of human GI-ME-N cell growth in a cell viability assay.

NCI-H1355 = type: functional, cell-based, Homo sapiens; settings: Homo sapiens, NCI-H1355;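 further: growth inhibition of human NCI-H1355 cells, read out by a cell viability assay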
Description: SANGER: Inhibition of human NCI-H1355 cell growth in a cell viability assay.

CGTH-W-1 = type: functional, cell-based, Homo sapiens; settings: Homo sapiens, CGTH-W-1;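 further: growth inhibition of human CGTH-W-1 cells measured by cell viability assay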
Description: SANGER: Inhibition of human CGTH-W-1 cell growth in a cell viability assay.

KS-1 = type: functional, cell-based, Homo sapiens; settings: Homo sapiens, KS-1;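 further: growth inhibition of KS-1 cells, read out with a cell viability assay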
Description: SANGER: Inhibition of human KS-1 cell growth in a cell viability assay.

MSTO-211H = type: functional, cell-based, Homo sapiens; settings: Homo sapiens, MSTO-211H
Description: SANGER: Inhibition of human MSTO-211H cell growth in a cell viability assay.

RCC10RGB = type: functional, cell-based, Homo sapiens; settings: Homo sapiens, RCC10RGB;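 further: growth inhibition of human RCC10RGB cells, read out by a cell viability assay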
Description: SANGER: Inhibition of human RCC10RGB cell growth in a cell viability assay.

U-266 = type: functional, cell-based, Homo sapiens; settings: Homo sapiens, U-266
Description: SANGER: Inhibition of human U-266 cell growth in a cell viability assay.

DSH1 = type: functional, cell-based, Homo sapiens; settings: Homo sapiens, DSH1;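 further: growth inhibition of human DSH1 cells, measured with a cell viability readout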
Description: SANGER: Inhibition of human DSH1 cell growth in a cell viability assay.

CAS-1 = type: functional, cell-based, Homo sapiens; settings: Homo sapiens, CAS-1;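 further: growth inhibition of CAS-1 cells, measured with a cell viability assay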
Description: SANGER: Inhibition of human CAS-1 cell growth in a cell viability assay.

GOTO = type: functional, cell-based, Homo sapiens; settings: Homo sapiens, GOTO;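 further: growth inhibition of GOTO cells, read out by a cell viability assay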
Description: SANGER: Inhibition of human GOTO cell growth in a cell viability assay.

TE-11 = type: functional, cell-based, Homo sapiens; settings: Homo sapiens, TE-11;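 further: growth inhibition of human TE-11 cells, read out by a cell viability assay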
Description: SANGER: Inhibition of human TE-11 cell growth in a cell viability assay.

SK-NEP-1 = type: functional, cell-based, Homo sapiens; settings: Homo sapiens, SK-NEP-1;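 further: growth inhibition of human SK-NEP-1 cells, read out by a cell viability assay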
Description: SANGER: Inhibition of human SK-NEP-1 cell growth in a cell viability assay.

NCI-H1395 = type: functional, cell-based, Homo sapiens; settings: Homo sapiens, NCI-H1395;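 further: cell viability assay read-out quantifying reduced proliferation of human NCI-H1395 cells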
Description: SANGER: Inhibition of human NCI-H1395 cell growth in a cell viability assay.

OCUB-M = type: functional, cell-based, Homo sapiens; settings: Homo sapiens, OCUB-M;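 further: growth inhibition of the cancer cell line, read out through a cell viability assay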
Description: SANGER: Inhibition of human OCUB-M cell growth in a cell viability assay.

IA-LM = type: functional, cell-based, Homo sapiens; settings: Homo sapiens, IA-LM;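 further: cell viability assay measuring growth inhibition of human IA-LM cells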
Description: SANGER: Inhibition of human IA-LM cell growth in a cell viability assay.

K5 = type: functional, cell-based, Homo sapiens; settings: Homo sapiens, K5
Description: SANGER: Inhibition of human K5 cell growth in a cell viability assay.

D-502MG = type: functional, cell-based, Homo sapiens; settings: Homo sapiens, D-502MG
Description: SANGER: Inhibition of human D-502MG cell growth in a cell viability assay.

GI-1 = type: functional, cell-based, Homo sapiens; settings: Homo sapiens, GI-1;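 further: growth inhibition of human GI-1 cells, measured with a cell viability readout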
Description: SANGER: Inhibition of human GI-1 cell growth in a cell viability assay.

NCI-H526 = type: functional, cell-based, Homo sapiens; settings: Homo sapiens, NCI-H526;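 further: growth inhibition of the human NCI-H526 cell line, measured by a cell viability assay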
Description: SANGER: Inhibition of human NCI-H526 cell growth in a cell viability assay.

EW-24 = type: functional, cell-based, Homo sapiens; settings: Homo sapiens, EW-24;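 further: human EW-24 cancer cell line, growth inhibition read out via a cell viability assay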
Description: SANGER: Inhibition of human EW-24 cell growth in a cell viability assay.

MOLT-16 = type: functional, cell-based, Homo sapiens; settings: Homo sapiens, MOLT-16;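 further: growth inhibition of human MOLT-16 cells, read out with a cell viability assay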
Description: SANGER: Inhibition of human MOLT-16 cell growth in a cell viability assay.

EW-3 = type: functional, cell-based, Homo sapiens; settings: Homo sapiens, EW-3;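 further: cell viability assay read-out, IC50 reflects inhibition of growth of the EW-3 cells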
Description: SANGER: Inhibition of human EW-3 cell growth in a cell viability assay.

D283 Med = type: functional, cell-based, Homo sapiens; settings: Homo sapiens, D283 Med
Description: SANGER: Inhibition of human D-283MED cell growth in a cell viability assay.

NB69 = type: functional, cell-based, Homo sapiens; settings: Homo sapiens, NB69;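 further: growth inhibition of NB69 cells, determined by a cell viability assay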
Description: SANGER: Inhibition of human NB69 cell growth in a cell viability assay.

D-247MG = type: functional, cell-based, Homo sapiens; settings: Homo sapiens, D-247MG
Description: SANGER: Inhibition of human D-247MG cell growth in a cell viability assay.

IST-MES1 = type: functional, cell-based, Homo sapiens; settings: Homo sapiens, IST-MES1;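 further: growth inhibition of IST-MES1 cells, measured with a cell viability assay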
Description: SANGER: Inhibition of human IST-MES1 cell growth in a cell viability assay.

MPP-89 = type: functional, cell-based, Homo sapiens; settings: Homo sapiens, MPP-89;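 further: growth inhibition of human MPP-89 cells, read out with a cell viability assay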
Description: SANGER: Inhibition of human MPP-89 cell growth in a cell viability assay.

SNU-C2B = type: functional, cell-based, Homo sapiens; settings: Homo sapiens, SNU-C2B;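 further: cell viability readout used to measure compound-driven suppression of SNU-C2B cell proliferation, IC50 marking half-maximal growth inhibition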
Description: SANGER: Inhibition of human SNU-C2B cell growth in a cell viability assay.

HOP-62 = type: functional, cell-based, Homo sapiens; settings: Homo sapiens, HOP-62;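 further: cell growth inhibition determined with a viability assay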
Description: SANGER: Inhibition of human HOP-62 cell growth in a cell viability assay.

HDLM-2 = type: functional, cell-based, Homo sapiens; settings: Homo sapiens, HDLM-2;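 further: cell viability assay measuring suppression of HDLM-2 proliferation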
Description: SANGER: Inhibition of human HDLM-2 cell growth in a cell viability assay.

COc1cc(-c2nn([C@H]3CC[C@H](N4CCN(C(C)=O)CC4)CC3)c3ncnc(N)c23)ccc1NC(=O)c1cc2ccccc2n1C
IC50 (EM-2): 0.337 µM
IC50 (TK-10): 0.596 µM
IC50 (SK-MEL-1): > 5.12 µM
IC50 (EW-11): > 5.12 µM
IC50 (Ramos-2G6-4C10): > 5.12 µM
IC50 (U-87 MG): > 5.12 µM
IC50 (BE-13): > 5.12 µM
IC50 (OS-RC-2): 0.755 µM
IC50 (TE-6): > 5.12 µM
IC50 (IST-SL1): > 5.12 µM
IC50 (C2BBe1): 0.757 µM
IC50 (DU-4475): > 5.12 µM
IC50 (MMAC-SF): > 5.12 µM
IC50 (RS4-11): > 5.12 µM
IC50 (NCI-H747): 2.86 µM
IC50 (NCI-H1304): > 5.12 µM
IC50 (NB13): > 5.12 µM
IC50 (NCI-H510A): 4.76 µM
IC50 (GB-1): 0.678 µM
IC50 (GI-ME-N): 2.29 µM
IC50 (NCI-H1355): > 5.12 µM
IC50 (CGTH-W-1): > 5.12 µM
IC50 (KS-1): 1.03 µM
IC50 (MSTO-211H): > 5.12 µM
IC50 (RCC10RGB): > 5.12 µM
IC50 (U-266): > 5.12 µM
IC50 (DSH1): > 5.12 µM
IC50 (CAS-1): > 5.12 µM
IC50 (GOTO): > 5.12 µM
IC50 (TE-11): 1.58 µM
IC50 (SK-NEP-1): > 5.12 µM
IC50 (NCI-H1395): > 5.12 µM
IC50 (OCUB-M): 5.03 µM
IC50 (IA-LM): > 5.12 µM
IC50 (K5): > 5.12 µM
IC50 (D-502MG): > 5.12 µM
IC50 (GI-1): > 5.12 µM
IC50 (NCI-H526): > 5.12 µM
IC50 (EW-24): > 5.12 µM
IC50 (MOLT-16): > 5.12 µM
IC50 (EW-3): > 5.12 µM
IC50 (D283 Med): > 5.12 µM
IC50 (NB69): 3.29 µM
IC50 (D-247MG): > 5.12 µM
IC50 (IST-MES1): 1.4 µM
IC50 (MPP-89): > 5.12 µM
IC50 (SNU-C2B): > 5.12 µM
IC50 (HOP-62): 0.475 µM
IC50 (HDLM-2): > 5.12 µM

OCCCNc1cc(-c2ccnc(Nc3cccc(Cl)c3)n2)ccn1
IC50 (EM-2): 0.176 µM
IC50 (TK-10): 0.057 µM
IC50 (SK-MEL-1): > 0.256 µM
IC50 (EW-11): > 0.256 µM
IC50 (Ramos-2G6-4C10): 0.0593 µM
IC50 (U-87 MG): > 0.256 µM
IC50 (BE-13): 0.0769 µM
IC50 (OS-RC-2): 0.0829 µM
IC50 (TE-6): > 0.256 µM
IC50 (IST-SL1): 0.147 µM
IC50 (C2BBe1): 0.154 µM
IC50 (DU-4475): 0.14 µM
IC50 (MMAC-SF): > 0.256 µM
IC50 (RS4-11): 0.0696 µM
IC50 (NCI-H747): 0.0473 µM
IC50 (NCI-H1304): 0.104 µM
IC50 (NB13): 0.126 µM
IC50 (NCI-H510A): > 0.256 µM
IC50 (GB-1): 0.038 µM
IC50 (GI-ME-N): 0.105 µM
IC50 (NCI-H1355): 0.0249 µM
IC50 (CGTH-W-1): 0.0798 µM
IC50 (KS-1): 0.014 µM
IC50 (MSTO-211H): > 0.256 µM
IC50 (RCC10RGB): 0.111 µM
IC50 (U-266): > 0.256 µM
IC50 (DSH1): > 0.256 µM
IC50 (CAS-1): > 0.256 µM
IC50 (GOTO): 0.0749 µM
IC50 (TE-11): 0.0342 µM
IC50 (SK-NEP-1): 0.0809 µM
IC50 (NCI-H1395): > 0.256 µM
IC50 (OCUB-M): 0.0525 µM
IC50 (IA-LM): 0.0932 µM
IC50 (K5): 0.0188 µM
IC50 (D-502MG): > 0.256 µM
IC50 (GI-1): 0.0781 µM
IC50 (NCI-H526): > 0.256 µM
IC50 (EW-24): > 0.256 µM
IC50 (MOLT-16): > 0.256 µM
IC50 (EW-3): > 0.256 µM
IC50 (D283 Med): > 0.256 µM
IC50 (NB69): > 0.256 µM
IC50 (D-247MG): > 0.256 µM
IC50 (IST-MES1): 0.135 µM
IC50 (MPP-89): 0.0904 µM
IC50 (SNU-C2B): 0.104 µM
IC50 (HOP-62): 0.0412 µM
IC50 (HDLM-2): > 0.256 µM
